Test results from the supplement of paper PMC11061612.

How the values were obtained:
Test in all cases: Bliss excess, mean over the matrix (fraction); higher = more synergy
[1] = test system: MKN28 (Gastric Carcinoma)
Method in brief: (§1)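 Cell lines grown in DMEM/F12 or RPMI with 10% FBS were plated in 1536-well plates and held 24 hours at 37°C, 5% CO2 before 72 hours of exposure to two-drug dose matrices, with DMSO typically at 0.2%. CellTiter-Glo 2.0 luminescence gave viability, which was converted to inhibition. Vehicle wells were set to 0 and blank wells to 1. Combination Emax is the second-highest inhibition in the matrix, and Bliss excess is the observed combination effect minus the expected EA + EB − EA·EB, where EA and EB are the single-agent effects.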

[2] = test system: KM12 (Colorectal Carcinoma)
Method in brief: as §1

CHP-212 (Neuroblastoma) = test system: CHP-212 (Neuroblastoma)
Method in brief: as §1

[3] = test system: EVSA-T (Breast Carcinoma)
Method in brief: as §1

TC-71 (Ewing's Sarcoma) = test system: TC-71 (Ewing's Sarcoma)
Method in brief: as §1

[4] = test system: KYSE-180 (Esophageal Squamous Cell Carcinoma)
Method in brief: as §1

[5] = test system: TE-6 (Esophageal Squamous Cell Carcinoma)
Method in brief: as §1

[6] = test system: NCI-H847 (Small Cell Lung Carcinoma)
Method in brief: as §1

[7] = test system: L-540 (Hodgkin's Lymphoma)
Method in brief: as §1

[8] = test system: COLO-678 (Colorectal Carcinoma)
Method in brief: as §1

[9] = test system: CAMA-1 (Breast Carcinoma)
Method in brief: as §1

[10] = test system: NCI-H1792 (Lung Adenocarcinoma)
Method in brief: as §1

[11] = test system: SW837 (Colorectal Carcinoma)
Method in brief: as §1

[12] = test system: MFM-223 (Breast Carcinoma)
Method in brief: as §1

WM-115 (Melanoma) = test system: WM-115 (Melanoma)
Method in brief: as §1

U251 (Low Grade Glioma) = test system: U251 (Low Grade Glioma)
Method in brief: as §1

[13] = test system: DiFi (Colorectal Carcinoma)
Method in brief: as §1

[14] = test system: HDQ-P1 (Breast Carcinoma)
Method in brief: as §1

[15] = test system: TOV-112D (Ovarian Carcinoma)
Method in brief: as §1

MEL-JUSO (Melanoma) = test system: MEL-JUSO (Melanoma)
Method in brief: as §1

Row | Compound | Bliss excess [1] | Bliss excess [2] | Bliss excess (CHP-212 (Neuroblastoma)) | Bliss excess [3] | Bliss excess (TC-71 (Ewing's Sarcoma)) | Bliss excess [4] | Bliss excess [5] | Bliss excess [6] | Bliss excess [7] | Bliss excess [8] | Bliss excess [9] | Bliss excess [10] | Bliss excess [11] | Bliss excess [12] | Bliss excess (WM-115 (Melanoma)) | Bliss excess (U251 (Low Grade Glioma)) | Bliss excess [13] | Bliss excess [14] | Bliss excess [15] | Bliss excess (MEL-JUSO (Melanoma))
1 | Cc1cc2ncnn2cc1Nc1ncc2c(n1)n(C1CCOCC1)c(=O)n2C [AZD7648] + CN(C)CCCOc1ccc(-c2ccc3ncc4c(c3c2)n(C2CCOCC2)c(=O)n4C)cn1 [AZD0156] (first compound max 10 µM, 7x7, partner max 1 µM) | -0.0127 | 0.0312 | 0.0036 | -0.0126 | 0.0438 | 0.0126 | -0.0515 | -0.0113 | -0.0074 | -0.0231 | -0.0238 | 0.0149 | 0.0255 | -0.0325 | -0.0098 | 0.0214 | -0.0119 | 0.0157 | 0.0307 | -0.0029
2 | CC1(C)CCC(CN2CCN(c3ccc(C(=O)NS(=O)(=O)c4ccc(NCC5CCOCC5)c([N+](=O)[O-])c4)c(Oc4cnc5[nH]ccc5c4)c3)CC2)=C(c2ccc(Cl)cc2)C1 [Venetoclax] + C1CN(CCC1(C(=O)N[C@@H](CCO)C2=CC=C(C=C2)Cl)N)C3=NC=NC4=C3C=CN4 [Capivasertib] (first compound max 1 µM, 7x7, partner max 3 µM) | -0.0455 | -0.041 | -0.0467 | -0.0371 | -0.0684 | -0.0208 | 0.0217 | 0.0062 | -0.0178 | -0.118 | -0.056 | -0.0549 | -0.0256 | -0.0258 | -0.0785 | -0.0133 | -0.022 | -0.0234 | -0.0285 | -0.0436
3 | C[C@@H]1COCCN1c1cc(C2([S@](C)(=N)=O)CC2)nc(-c2ccnc3[nH]ccc23)n1 [AZD6738] + O=C(c1cc(Cc2n[nH]c(=O)c3ccccc23)ccc1F)N1CCN(C(=O)C2CC2)CC1 [Olaparib] (first compound max 10 µM, 7x7, partner max 10 µM) | -0.001 | 0.0138 | -0.0095 | 0.0017 | -0.0726 | 0.0762 | -0.0172 | -0.014 | -0.022 | -0.0046 | -0.0327 | 0.0178 | 0.0093 | 0.0074 | 0.0166 | 0.056 | 0.0033 | 0.0155 | 0.0206 | 0.0118
4 | Cc1cc2ncnn2cc1Nc1ncc2c(n1)n(C1CCOCC1)c(=O)n2C [AZD7648] + C=CCn1c(=O)c2cnc(Nc3ccc(N4CCN(C)CC4)cc3)nc2n1-c1cccc(C(C)(C)O)n1 [AZD1775] (first compound max 10 µM, partner max 1 µM) | 0.0495 | -0.0388 | 0.0249 | -0.024 | 0.055 | 0.0302 | -0.07 | -0.0216 | 0.0106 | -0.0224 | -0.0068 | -0.0274 | 0.0241 | -0.0357 | 0.0217 | -0.014 | -0.0013 | -0.0805 | -0.0325 | 0.0263
5 | CN(CCO)CC[C@H](CSc1ccccc1)Nc1ccc(S(=O)(=O)NC(=O)c2ccc(N3CCC([C@@H](O)c4ccccc4-c4ccc(Cl)cc4)CC3)cc2)cc1S(=O)(=O)C(F)(F)F [AZD4320] + C[C@@H](Nc1cc(F)cc(F)c1)c1cc(C(=O)N(C)C)cc2c(=O)cc(N3CCOCC3)oc12 [AZD8186] (first compound max 1 µM, 7x7, partner max 3 µM) | 0.0229 | 0.0562 | -0.072 | 0.0222 | -0.027 | 0.0343 | 0.0313 | 0.0851 | 0.068 | 0.0221 | 0.0218 | 0.0942 | -0.0491 | -0.0059 | 0.0755 | -0.0013 | -0.034 | -0.0018 | -0.0108 | 0.033
6 | C=CCn1c(=O)c2cnc(Nc3ccc(N4CCN(C)CC4)cc3)nc2n1-c1cccc(C(C)(C)O)n1 [AZD1775] + C[C@@H]1COCCN1C2=NC(=NC(=C2)C3(CC3)[S@](=N)(=O)C)C4=C5C=CNC5=NC=C4 [AZD6738] (first compound max 1 µM, partner max 10 µM) | 0.0597 | 0.0228 | -0.0567 | 0.033 | 0.0431 | 0.0869 | 0.0135 | 0.0684 | -0.0091 | -0.028 | 0.0371 | 0.0105 | 0.0057 | 0.0412 | -0.0523 | 0.0604 | 0.0242 | -0.0038 | 0.0714 | 0.0009
7 | Cc1c2c(nn1C)CSCc1cc(n(C)n1)CSc1cc(c3ccccc3c1)OCCCc1c(C(=O)O)n(C)c3c-2c(Cl)ccc13 [AZD5991] + C=CCn1c(=O)c2cnc(Nc3ccc(N4CCN(C)CC4)cc3)nc2n1-c1cccc(C(C)(C)O)n1 [AZD1775] (first compound max 1 µM, partner max 1 µM) | -0.0227 | 0.0031 | -0.0508 | 0.0165 | 0.0478 | 0.0464 | 0.0135 | -0.0445 | -0.0127 | -0.0614 | -0.0092 | -0.0453 | 0 | -0.0611 | -0.0328 | 0.0025 | 0.0285 | -0.0575 | -0.017 | -0.0033
8 | C=CCn1c(=O)c2cnc(Nc3ccc(N4CCN(C)CC4)cc3)nc2n1-c1cccc(C(C)(C)O)n1 [AZD1775] + C1CN(CCC1(C(=O)N[C@@H](CCO)C2=CC=C(C=C2)Cl)N)C3=NC=NC4=C3C=CN4 [Capivasertib] (first compound max 3 µM, partner max 3 µM) | -0.0219 | -0.0162 | -0.077 | 0.129 | 0.0131 | -0.0066 | 0.0422 | -0.0643 | -0.0019 | -0.0893 | -0.0244 | 0.0053 | -0.0504 | -0.0369 | -0.116 | -0.0223 | 0.0272 | -0.0679 | 0.028 | -0.0352
9 | Cc1c2c(nn1C)CSCc1cc(n(C)n1)CSc1cc(c3ccccc3c1)OCCCc1c(C(=O)O)n(C)c3c-2c(Cl)ccc13 [AZD5991] + CCN(CCO)CCCOc1ccc2c(Nc3cc(CC(=O)Nc4cccc(F)c4)[nH]n3)ncnc2c1 [AZD2811] (first compound max 1 µM, 7x7, partner max 1 µM) | 0.0839 | 0.058 | -0.0496 | 0.0959 | -0.0244 | 0.102 | 0.0482 | 0.0011 | 0.0788 | -0.0673 | 0.0743 | 0.016 | -0.0341 | 0.0103 | -0.0726 | 0.098 | -0.0077 | -0.0283 | 0.0906 | 0.0389
10 | CN(CCO)CC[C@H](CSc1ccccc1)Nc1ccc(S(=O)(=O)NC(=O)c2ccc(N3CCC([C@@H](O)c4ccccc4-c4ccc(Cl)cc4)CC3)cc2)cc1S(=O)(=O)C(F)(F)F [AZD4320] + CCN(CCO)CCCOc1ccc2c(Nc3cc(CC(=O)Nc4cccc(F)c4)[nH]n3)ncnc2c1 [AZD2811] (first compound max 1 µM, 7x7, partner max 1 µM) | -0.0107 | 0.0173 | 0.0016 | 0.156 | -0.0299 | 0.0189 | 0.0228 | 0.0014 | 0.0985 | -0.0247 | 0.0961 | -0.0267 | 0.0082 | -0.0022 | -0.0003 | 0.0287 | -0.013 | 0.0258 | 0.0419 | 0.0289
11 | COc1cccc(OCCCN)c1-c1cc(Nc2cnc(C#N)cn2)n[nH]1 [Prexasertib] + CCc1c2c(nc3ccc(O)cc13)-c1cc3c(c(=O)n1C2)COC(=O)[C@]3(O)CC [SN-38] (first compound max 1 µM, 7x7, partner max 0.3 µM) | -0.0082 | 0.0186 | -0.094 | 0.224 | 0.0187 | 0.0525 | 0.128 | 0.055 | -0.0621 | -0.0355 | 0.0573 | 0.0204 | 0.0546 | 0.05 | -0.0492 | 0.0241 | -0.0153 | 0.0367 | 0.0183 | -0.0378
12 | CC1(C)CCC(CN2CCN(c3ccc(C(=O)NS(=O)(=O)c4ccc(NCC5CCOCC5)c([N+](=O)[O-])c4)c(Oc4cnc5[nH]ccc5c4)c3)CC2)=C(c2ccc(Cl)cc2)C1 [Venetoclax] + CN(C)CCCOc1ccc(-c2ccc3ncc4c(c3c2)n(C2CCOCC2)c(=O)n4C)cn1 [AZD0156] (first compound max 1 µM, 7x7, partner max 1 µM) | 0.0042 | -0.0126 | -0.034 | -0.0005 | -0.0022 | -0.0128 | 0.0055 | 0.037 | 0.0137 | -0.0549 | -0.0161 | 0.0133 | -0.0067 | -0.0313 | -0.0314 | -0.026 | 0.0216 | -0.0292 | -0.0341 | -0.0128
13 | COc1cccc2c1C(=O)c1c(O)c3c(c(O)c1C2=O)C[C@@](O)(C(=O)CO)C[C@@H]3O[C@H]1C[C@H](N)[C@H](O)[C@H](C)O1 [Doxorubicin] + Cc1cc2ncnn2cc1Nc1ncc2c(n1)n(C1CCOCC1)c(=O)n2C [AZD7648] (first compound max 1 µM, 7x7, partner max 10 µM) | -0.0179 | 0.0554 | 0.0611 | 0.0503 | 0.162 | 0.0587 | -0.0541 | 0.124 | 0.0793 | 0.0188 | 0.0266 | 0.067 | 0.0068 | 0.0261 | -0.0234 | 0.0913 | 0.051 | 0.0561 | 0.0679 | 0.0309
14 | CC1(C)CCC(CN2CCN(c3ccc(C(=O)NS(=O)(=O)c4ccc(NCC5CCOCC5)c([N+](=O)[O-])c4)c(Oc4cnc5[nH]ccc5c4)c3)CC2)=C(c2ccc(Cl)cc2)C1 [Venetoclax] + COc1cc(Nc2ncc3c(n2)-c2ccc(Cl)cc2C(c2c(F)cccc2OC)=NC3)ccc1C(=O)O [Alisertib] (first compound max 1 µM, 7x7, partner max 10 µM) | -0.0541 | -0.0669 | -0.0654 | 0.0434 | 0.0868 | 0.0114 | 0.0047 | 0.0304 | 0.161 | -0.0712 | -0.0072 | 0.0603 | -0.0319 | -0.0077 | -0.0539 | 0.0027 | 0.0661 | -0.0185 | 0.116 | -0.0463
